Here are results for 77 molecules from ChEMBL document CHEMBL1151930, “Physicochemical determinants of human renal clearance” (J Med Chem, 2009).

SMILES strings stand for the structures.

This series is described as follows: clinical. The note with it: human, in vivo.
Regarding `Cc1cn([C@H]2C=C[C@@H](CO)O2)c(=O)[nH]c1=O` [STAVUDINE], the CL renal came to 3.53 mL/min/kg.

In turn, `Nc1nc(N)c2nc(-c3ccccc3)c(N)nc2n1` registered a CL renal of 2.77 mL/min/kg. Regarding `CCCC(C)C1(CC)C(=O)NC(=S)NC1=O` (configuration not stated) [THIOPENTAL], the CL renal was determined as 0.08 mL/min/kg.

`C=C1CC[C@@]2(O)[C@H]3Cc4ccc(O)c5c4[C@@]2(CCN3CC2CC2)[C@H]1O5` returned a CL renal of 0.75 mL/min/kg. With `CC(C)(C)NCC(O)c1cc(O)cc(O)c1` (configuration not stated) [TERBUTALINE] the figure was 2.2 mL/min/kg; with `O=C(O)P(=O)(O)O` [FOSCARNET], 1.68 mL/min/kg; with `CCN[C@@H]1C[C@H](N)[C@@H](O[C@H]2OC(CN)=CC[C@H]2N)[C@H](O)[C@H]1O[C@H]1OC[C@](C)(O)[C@H](NC)[C@H]1O` [NETILMICIN], 0.28 mL/min/kg. With `C[C@@H](O)[C@H]1C(=O)N2C(C(=O)O)=C(S[C@@H]3CN[C@H](C(=O)N(C)C)C3)[C@H](C)[C@H]12` [MEROPENEM] the figure was 2.73 mL/min/kg. With `CCOC(=O)C1(c2ccccc2)CCN(C)CC1` [MEPERIDINE] the figure was 0.25 mL/min/kg. `CCCCNc1cc(C(=O)O)cc(S(N)(=O)=O)c1Oc1ccccc1` [BUMETANIDE] gave a CL renal of 0.85 mL/min/kg.

In the case of `CC(C)NCC(O)COc1ccc(COCCOC(C)C)cc1` (configuration not stated) [BISOPROLOL], the CL renal was determined as 2.28 mL/min/kg. Consider `CC1CCCC(C)N1CCCC(O)(c1ccccc1)c1ccccn1` (configuration not stated) [PIRMENOL], for which the CL renal turned out to be 0.72 mL/min/kg. To `c1ccc(C2(N3CCCCC3)CCCCC2)cc1` [PHENCYCLIDINE] belongs 0.82 mL/min/kg. With `CCc1nn(CCCN2CCN(c3cccc(Cl)c3)CC2)c(=O)n1CCOc1ccccc1` [NEFAZODONE] the figure was 0.38 mL/min/kg. With `CNS(=O)(=O)Cc1ccc2[nH]cc(CCN(C)C)c2c1` the figure was 3.7 mL/min/kg. Molecule `CCN(CC)CCCC(C)Nc1ccnc2cc(Cl)ccc12` (configuration not stated) [CHLOROQUINE] had a CL renal of 2.3 mL/min/kg.

For the molecule `NS(=O)(=O)c1cc(C2(O)NC(=O)c3ccccc32)ccc1Cl` (configuration not stated) [CHLORTHALIDONE], the CL renal turned out to be 0.98 mL/min/kg. With `CC(C)=CCN1CC[C@]2(C)c3cc(O)ccc3C[C@H]1[C@H]2C` [(+)-PENTAZOCINE] the figure was 2.99 mL/min/kg; with `CC1(C)S[C@@H]2[C@H](NC(=O)C(C(=O)O)c3ccccc3)C(=O)N2[C@H]1C(=O)O` (some centres not stated) [CARBENICILLIN], 1.9 mL/min/kg. With `CN/C(=N/CCSCc1nc[nH]c1C)NC#N` [CIMETIDINE] the figure was 7.9 mL/min/kg; with `CCN1CCC[C@H]1CNC(=O)c1c(OC)ccc(Br)c1OC` [REMOXIPRIDE], 0.44 mL/min/kg; with `COc1cc(NCc2ccc3nc(N)nc(N)c3c2C)cc(OC)c1OC` [TRIMETREXATE], 0.14 mL/min/kg. With `CC(C)(C)NCC(O)COc1cccc2c1CC(O)C(O)C2` (configuration not stated) [NADOLOL] the figure was 1.8 mL/min/kg; with `Nc1ncnc2c1ncn2CCOCP(=O)(O)O` [ADEFOVIR], 3.33 mL/min/kg.

`CCCCc1ncc(/C=C(\Cc2cccs2)C(=O)O)n1Cc1ccc(C(=O)O)cc1` [EPROSARTAN] had a CL renal of 0.7 mL/min/kg. `CO[C@@]1(NC(=O)C(C(=O)O)c2ccc(O)cc2)C(=O)N2C(C(=O)O)=C(CSc3nnnn3C)CO[C@@H]21` (some centres not stated) [MOXALACTAM] returned a CL renal of 0.63 mL/min/kg. To `CCCNC(=O)NS(=O)(=O)c1ccc(Cl)cc1` [CHLORPROPAMIDE] belongs 0.01 mL/min/kg; to `C[C@@H](CN1CC(=O)NC(=O)C1)N1CC(=O)NC(=O)C1` [DEXRAZOXANE], 1.4 mL/min/kg. To `CC(C)[C@H]1CC[C@H](C(=O)N[C@H](Cc2ccccc2)C(=O)O)CC1` [NATEGLINIDE] belongs 0.1 mL/min/kg; to `NCCCC[C@H](N[C@@H](CCc1ccccc1)C(=O)O)C(=O)N1CCC[C@H]1C(=O)O` [LISINOPRIL ANHYDROUS], 1.2 mL/min/kg; to `CC1(C)S[C@@H]2[C@H](NC(=O)C(c3ccccc3)S(=O)(=O)O)C(=O)N2[C@H]1C(=O)O` (some centres not stated) [SULBENICILLIN], 1.3 mL/min/kg.

In turn, `CC(=O)Nc1c(I)c(C(=O)O)c(I)c(N(C)C(C)=O)c1I` [METRIZOIC ACID] returned a CL renal of 2.53 mL/min/kg. For the molecule `CNC(=C[N+](=O)[O-])NCCSCc1csc(CN(C)C)n1` [NIZATIDINE], the CL renal was determined as 7.35 mL/min/kg. To `CC(C)NCC(O)COc1ccc(CCOCC2CC2)cc1` (configuration not stated) [BETAXOLOL] belongs 0.7 mL/min/kg; to `CC(=O)O[C@H]1C(=O)[C@@]2(C)[C@H]([C@H](OC(=O)c3ccccc3)[C@]3(O)C[C@H](OC(=O)[C@H](O)[C@@H](NC(=O)c4ccccc4)c4ccccc4)C(C)=C1C3(C)C)[C@]1(OC(C)=O)CO[C@@H]1C[C@@H]2O` [PACLITAXEL], 0.64 mL/min/kg; to `S=P(N1CC1)(N1CC1)N1CC1` [THIOTEPA], 0.03 mL/min/kg. With `CO[C@H]1/C=C/O[C@@]2(C)Oc3c(C)c(O)c4c(c3C2=O)C2=NC3(CCN(CC(C)C)CC3)NC2=C(NC(=O)/C(C)=C\C=C\[C@H](C)[C@H](O)[C@@H](C)[C@@H](O)[C@@H](C)[C@H](OC(C)=O)[C@@H]1C)C4=O` [RIFABUTIN] the figure was 0.4 mL/min/kg; with `Cc1cc(=O)n(-c2ccccc2)n1C` [ANTIPYRINE], 0.02 mL/min/kg; with `OCCN1CCN(CCCN2c3ccccc3Sc3ccc(Cl)cc32)CC1` [PERPHENAZINE], 5 mL/min/kg. To `NC1CCN(c2c(F)cc3c(=O)c(C(=O)O)cn(C4CC4)c3c2Cl)C1` (configuration not stated) [CLINAFLOXACIN] belongs 3.2 mL/min/kg. The molecule `C[C@H]1C[C@@H]2[C@H]([C@@H](O)C[C@@]3(C)[C@H]2CC[C@]3(O)C(=O)CO)[C@@]2(C)C=CC(=O)C=C12` [METHYLPREDNISOLONE] gave a CL renal of 0.3 mL/min/kg.

`Sc1ncnc2nc[nH]c12` [MERCAPTOPURINE ANHYDROUS] showed a CL renal of 0.68 mL/min/kg. With `C[C@@H](O)[C@H]1C(=O)N2C(C(=O)[O-])=C(SC3Cn4cnc[n+]4C3)[C@H](C)[C@H]12` (some centres not stated) [BIAPENEM] the figure was 1.23 mL/min/kg; with `Nc1ccc(S(=O)(=O)c2ccc(N)cc2)cc1` [DAPSONE], 0.05 mL/min/kg; with `CCC[C@@H]1C[C@@H](C(=O)N[C@@H]([C@H]2O[C@H](SC)[C@H](O)[C@@H](O)[C@H]2O)[C@H](C)Cl)N(C)C1` [CLINDAMYCIN], 0.62 mL/min/kg. With `CC[C@]1(O)C[C@@H]2CN(CCc3c([nH]c4ccccc34)[C@@](C(=O)OC)(c3cc4c(cc3OC)N(C)[C@H]3[C@@](O)(C(=O)OC)[C@H](OC(C)=O)[C@]5(CC)C=CCN6CC[C@]43[C@@H]65)C2)C1` [VINBLASTINE] the figure was 2.64 mL/min/kg; with `CN(C)CCCN1c2ccccc2Sc2ccc(Cl)cc21` [CHLORPROMAZINE], 0.16 mL/min/kg; with `CCOc1ccc2ccccc2c1C(=O)N[C@@H]1C(=O)N2[C@@H]1SC(C)(C)[C@@H]2C(=O)O` [NAFCILLIN], 1.03 mL/min/kg. With `Nc1nc(Cl)nc2c1ncn2[C@H]1C[C@H](O)[C@@H](CO)O1` [CLADRIBINE] the figure was 3.92 mL/min/kg; with `C[C@](N)(Cc1ccc(O)c(O)c1)C(=O)O` [METHYLDOPA], 2.1 mL/min/kg. Regarding `C[C@H]1COc2c(N3CCN(C)CC3)c(F)cc3c(=O)c(C(=O)O)cn1c23.C[C@H]1COc2c(N3CCN(C)CC3)c(F)cc3c(=O)c(C(=O)O)cn1c23.O` [LEVOFLOXACIN], the CL renal turned out to be 1.41 mL/min/kg. With `Cn1c(=O)c2[nH]cnc2n(C)c1=O.O` [THEOPHYLLINE] the figure was 0.09 mL/min/kg. To `c1ccc(C2(c3ccccc3)CC2C2=NCCN2)cc1` (configuration not stated) [CIFENLINE] belongs 4.2 mL/min/kg; to `CNCC[C@@H](Oc1ccccc1C)c1ccccc1` [ATOMOXETINE], 0.28 mL/min/kg. Molecule `COc1cccc(OC)c1C(=O)N[C@@H]1C(=O)N2[C@@H]1SC(C)(C)[C@@H]2C(=O)O` [METHICILLIN] yielded a CL renal of 4.2 mL/min/kg. With `N=C(N)c1ccc(CNC(=O)[C@@H]2CCN2C(=O)[C@H](NCC(=O)O)C2CCCCC2)cc1` the figure was 1.6 mL/min/kg; with `CC[C@H](C)C(=O)O[C@H]1C[C@@H](C)C=C2C=C[C@H](C)[C@H](CC[C@@H]3C[C@@H](O)CC(=O)O3)[C@H]21` [LOVASTATIN], 0.72 mL/min/kg; with `CCNCC(O)c1cccc(O)c1` (configuration not stated) [ETILEFRINE], 3.96 mL/min/kg.

On to `CCOC(=O)C1=C(C)NC(C)=C(C(=O)OC)C1c1cccc([N+](=O)[O-])c1` (configuration not stated) [NITRENDIPINE], for which the CL renal stood at 0.25 mL/min/kg. Consider `Cc1ccsc1C(=CCCN1CCC[C@@H](C(=O)O)C1)c1sccc1C` [TIAGABINE], for which the CL renal is 0.03 mL/min/kg.

Turning to `CN(C)Cc1nnc2n1-c1ccc(Cl)cc1C(c1ccccc1)=NC2` [ADINAZOLAM], the CL renal was 2.6 mL/min/kg. With `C[C@@H]1C[C@H]2[C@@H]3CCC4=CC(=O)C=C[C@]4(C)[C@@]3(F)[C@@H](O)C[C@]2(C)[C@@]1(O)C(=O)CO` [DEXAMETHASONE] the figure was 0.09 mL/min/kg; with `CC1(C)S[C@@H]2[C@H](NC(=O)[C@H](N)c3ccc(O)cc3)C(=O)N2[C@H]1C(=O)O` [AMOXICILLIN], 1.89 mL/min/kg; with `NCC1(CC(=O)O)CCCCC1` [GABAPENTIN], 1.7 mL/min/kg.

Take `CCCCCN(CCCOC)C(=O)[C@@H](CCC(=O)O)NC(=O)c1ccc(Cl)c(Cl)c1` [DEXLOXIGLUMIDE]: the CL renal was found to be 0.41 mL/min/kg. With `Cc1cccc(C)c1NC(=O)NCCCNC(C)C` the figure was 2.3 mL/min/kg. Regarding `Cc1cccc(C)c1OCC(C)N` (configuration not stated) [MEXILETINE], the CL renal is 0.83 mL/min/kg. For `CO/N=C(\C(=O)N[C@@H]1C(=O)N2C(C(=O)O)=C(C)CS[C@H]12)c1csc(N)n1`, the CL renal came to 1.5 mL/min/kg. With `Cn1nnnc1SCC1=C(C(=O)O)N2C(=O)[C@@H](NC(=O)[C@H](O)c3ccccc3)[C@H]2SC1` [CEFAMANDOLE], the CL renal came out at 2.7 mL/min/kg. To `Clc1ccc2nsnc2c1NC1=NCCN1` [TIZANIDINE] belongs 0.33 mL/min/kg.

For `Cc1cn([C@H]2C[C@H](N=[N+]=[N-])[C@@H](CO)O2)c(=O)[nH]c1=O` [ZIDOVUDINE], the CL renal is 5.67 mL/min/kg. With `CCOc1cc(CC(=O)N[C@@H](CC(C)C)c2ccccc2N2CCCCC2)ccc1C(=O)O` [REPAGLINIDE] the figure was 0.12 mL/min/kg; with `CCOC(=O)C1(c2ccccc2)CCC=CC1N(C)C` (configuration not stated) [TILIDINE], 0.26 mL/min/kg; with `Cn1c(=O)c2c(ncn2C)n(C)c1=O` [CAFFEINE], 0.02 mL/min/kg.

In the case of `Cc1[nH]c(=O)c(C#N)cc1-c1ccncc1` [MILRINONE], the CL renal turned out to be 5 mL/min/kg.

With `CN[C@@H]1CCc2[nH]c3ccc(C(N)=O)cc3c2C1` [FROVATRIPTAN], the CL renal was 1.04 mL/min/kg. To `CN1CCC[C@H]1c1cccnc1` [NICOTINE] belongs 3 mL/min/kg.
